Target: T1, RORγt (Homo sapiens, UniProt P51449)
T1 construct: Prepare 4×RORgt-LBD in 1× buffer
T1 sequence (P51449 269-508 limits assumed): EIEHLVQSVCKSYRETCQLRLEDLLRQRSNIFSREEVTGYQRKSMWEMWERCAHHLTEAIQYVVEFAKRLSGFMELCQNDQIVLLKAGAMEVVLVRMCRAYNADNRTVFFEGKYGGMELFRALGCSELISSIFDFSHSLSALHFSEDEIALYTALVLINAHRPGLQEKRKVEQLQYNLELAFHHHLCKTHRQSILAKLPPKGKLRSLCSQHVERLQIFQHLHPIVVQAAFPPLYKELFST
Assay: Fluorescence resonance energy transfer (FRET) assay of inhibitory activity on RORγt
Format: biochemical
Settings: RORgt-LBD GST with SRC peptide
Description: Fluorescence resonance energy transfer (FRET) experiment was performed to assay the inhibitory activity of the compound of the present invention on RORγt.
1) Preparation of DMSO stock solutions of the compounds: All compounds were dissolved in DMSO to prepare 10 mM stock solutions.
2) Compound storage: After the compound was dissolved in DMSO, the solution can be stored in a desiccator at room temperature for three months. For long-term storage, the solution should be put in a −20° C. refrigerator.
3) Preparation of working solution: • a) Positive control compound AZD0284: Starting from 500 µM, the solution was diluted serially by 3-folds with DMSO to obtain a 10-concentration gradient, each concentration with 3 replicate wells. 2 wells were pipetted. The gradiently diluted compound was diluted in a reaction buffer to obtain a 4× working solution (starting from 40 μM, diluted gradiently by 3-folds) of the positive control compound. • b) Compounds to be tested: Starting from 500 μM, the solution was diluted serially by 3-folds with DMSO to obtain a 10-concentration gradient, each concentration with 3 replicate wells. 2 wells were pipetted. The gradiently diluted compound was diluted in a reaction buffer to obtain a 4× working solution ([…], diluted gradiently by 3-folds) of the compounds to be tested. • c) Prepare a 4× negative control (8% DMSO). • d) Centrifuge the plate at 1000 rpm for 1 min.
1) Prepare 4× serially diluted compounds in 1× buffer.
2) Add 5 μl of the 4× serially diluted compound (prepared in step 1) to a 384 assay plate (784075, Greiner).
3) Prepare 4×RORgt-LBD in 1× buffer.
4) Add 5 μl of the 4×RORgt-LBD (prepared in step 3) to the 384 assay plate (prepared in step 2).
5) Incubate the assay plate for 15 min at room temperature, protected from light.
6) Prepare a 2× mixture of SRC, anti-GST Eu and streptavidin-d2 in 1× […].
7) Add 10 μl of the 2× mixture (prepared in step 6) to the 384 assay plate (prepared in step 4).
8) Centrifuge the 384 assay plates at 1000 g for 1 min.
9) Incubate for 3 h at room temperature, protected from light.
10) Read the plate at wavelengths of 665 nm and 615 nm on an Envision 2104 plate reader.
Relative ratio (RR): Calculate the relative ratio (response value at 665 nm/response value at 615 nm-response value in blank background) of each well.
Inhibition rate %=[1−(fluorescence detection value of the compound−fluorescence detection average of the positive compound)/(fluorescence detection average of the negative control−fluorescence detection average of the positive compound)]×100
Calculate the IC50 and dose-response curve of the compound: The IC50 and dose-response curve of the compound were obtained via Graphpad 8.0 by calculating the inhibition rate of the compound and the log value of the compound concentration.

CCS(=O)(=O)c1ccc(CC(=O)Nc2ccc(C(=O)C3(c4cnn(C)c4)CC3)nc2)cc1 [Compound I-60, 2-(4-(ethylsulfonyl)phenyl)-N-(6-(1-(1-methyl-1H-pyrazol-4-yl)cyclopropane-1-carbonyl)pyridin-3-yl)acetamide] and CCS(=O)(=O)c1ccc(CC(=O)Nc2ccc(C(=O)C3(c4ccc(F)cn4)CC3)nc2)cc1 [Compound I-68, 2-(4-(ethylsulfonyl)phenyl)-N-(6-(1-(5-fluoropyridin-2-yl)cyclopropane-1-carbonyl)pyridin-3-yl)acetamide] fall in the same range of IC50: 0.1 to 1 µM for the first, 0.1 to 1 µM for the second.

CCS(=O)(=O)c1ccc(CC(=O)Nc2ccc(C(=O)C(C)(C)c3cccc(F)n3)nc2)cc1 [Compound I-61] and CCS(=O)(=O)c1ccc(CC(=O)Nc2ccc(C(=O)C(C)(C)c3cccc(C#N)n3)nc2)cc1 [Compound I-65] fall in the same range of IC50: 0.001 to 0.01 µM for the first, 0.001 to 0.01 µM for the second.

CCS(=O)(=O)c1ccc(CC(=O)Nc2ccc(C(=O)C(C)(C)c3nc(C)co3)nc2)cc1 [Compound I-62] and CCS(=O)(=O)c1ccc(CC(=O)Nc2ccc(C(=O)C(C)(C)c3cn(C)cn3)nc2)cc1 [Compound I-72, 2-(4-(ethylsulfonyl)phenyl)-N-(6-(2-methyl-2-(1-methyl-1H-imidazol-4-yl)propionyl)pyridin-3-yl)acetamide] fall in the same range of IC50: 0.05 to 0.1 µM for the first, 0.05 to 0.1 µM for the second.

Compared with CNS(=O)(=O)c1ccc(CC(=O)Nc2ccc(C(=O)C(C)(C)c3ccccn3)nc2)cc1 [Compound I-63, N-(6-(2-methyl-2-(pyridin-2-yl)propionyl)pyridin-3-yl)-2-(4-(N-methylsulfamoyl)phenyl)acetamide], CN(C)S(=O)(=O)c1ccc(CC(=O)Nc2ccc(C(=O)C(C)(C)c3ccccn3)nc2)cc1 [Compound I-64, 2-(4-(N,N-dimethylsulfamoyl)phenyl)-N-(6-(2-methyl-2-(pyridin-2-yl)propionyl)pyridin-3-yl)acetamide] is higher in IC50: 0.01 to 0.05 µM for the first, over 1 µM for the second.

CCS(=O)(=O)c1ccc(CC(=O)Nc2ccc(C(=O)C3(c4ccc(F)cc4)CC(F)(F)C3)nc2)cc1 [Compound I-66] and CNS(=O)(=O)c1ccc(CC(=O)Nc2ccc(C(=O)C3(c4ccc(F)cc4)CC(F)(F)C3)nc2)cc1 [Compound I-75, N-(6-(3,3-difluoro-1-(4-fluorophenyl)cyclobutane-1-carbonyl)pyridin-3-yl)-2-(4-(N-methylsulfamoyl)phenyl)acetamide] fall in the same range of IC50: 0.001 to 0.01 µM for the first, 0.001 to 0.01 µM for the second.

First: CN(C)S(=O)(=O)c1ccc(CC(=O)Nc2ccc(C(=O)C3(c4ccc(F)cc4)CC(F)(F)C3)nc2)cc1 [Compound I-67]
Second: CCS(=O)(=O)c1ccc(CC(=O)Nc2ccc(C(=O)C(C)c3ccccn3)nc2)cc1 (stereo not shown) [Compound I-73, 2-(4-(ethylsulfonyl)phenyl)-N-(6-(2-(pyridin-2-yl)propanoyl)pyridin-3-yl)acetamide]
The IC50 of the first is higher: 0.1 to 1 µM for the first, 0.01 to 0.05 µM for the second. The second is the more potent here.

CCC(C(=O)c1ccc(NC(=O)Cc2ccc(S(=O)(=O)CC)cc2)cn1)c1ccccn1 (stereo not shown) [Compound I-69] and CCS(=O)(=O)c1ccc(CC(=O)Nc2ccc(C(=O)C(c3ccccn3)C(C)C)nc2)cc1 (stereo not shown) [Compound I-74] fall in the same range of IC50: 0.01 to 0.05 µM for the first, 0.01 to 0.05 µM for the second.

First: CCS(=O)(=O)c1ccc(CC(=O)Nc2ccc(C(=O)C(C)(C)c3ccccn3)cn2)cc1 [Compound I-71, 2-(4-(ethylsulfonyl)phenyl)-N-(5-(2-methyl-2-(pyridin-2-yl)propionyl)pyridin-2-yl)acetamide]
Second: CCS(=O)(=O)c1ccc(CC(=O)Nc2ccc(C(=O)C(C)(C)c3cccc(C(F)(F)F)n3)nc2)cc1 [Compound I-76]
The IC50 of the first is higher: 0.05 to 0.1 µM for the first, 0.001 to 0.01 µM for the second.
